Measurements: ChEMBL document CHEMBL1821607, “N-Arylalkyl-2-azaadamantanes as cage-expanded polycarbocyclic sigma (σ) receptor ligands” (Bioorg Med Chem Lett, 2011)

Tests used:
[1] = biological target: Sodium-dependent serotonin transporter (Homo sapiens) (UniProt P31645); test: Inhibition of SERT at 10 uM by NIMH PDSP
[2] = biological target: T1, 5-hydroxytryptamine receptor 2C (Homo sapiens) (UniProt P28335); test: Inhibition of 5-HT2C receptor at 10 uM by NIMH PDSP
T1 sequence (whole entry): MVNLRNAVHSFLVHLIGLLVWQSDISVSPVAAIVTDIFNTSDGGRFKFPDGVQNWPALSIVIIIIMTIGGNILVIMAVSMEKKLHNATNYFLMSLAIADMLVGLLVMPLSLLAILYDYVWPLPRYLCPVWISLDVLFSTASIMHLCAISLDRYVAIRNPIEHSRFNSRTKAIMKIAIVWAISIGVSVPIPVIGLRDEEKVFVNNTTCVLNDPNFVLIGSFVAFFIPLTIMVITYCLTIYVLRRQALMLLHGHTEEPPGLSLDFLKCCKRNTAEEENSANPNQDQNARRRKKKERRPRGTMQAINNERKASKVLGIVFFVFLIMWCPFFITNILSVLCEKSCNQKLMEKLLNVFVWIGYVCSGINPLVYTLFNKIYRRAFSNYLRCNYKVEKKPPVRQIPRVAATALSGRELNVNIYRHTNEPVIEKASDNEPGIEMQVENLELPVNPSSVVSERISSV

[3] = biological target: Muscarinic acetylcholine receptor M3 (Homo sapiens) (UniProt P20309); test: Inhibition of M3 muscarinic receptor at 10 uM by NIMH PDSP
[4] = biological target: Mu-type opioid receptor (Homo sapiens) (UniProt P35372); test: Inhibition of mu opioid receptor at 10 uM by NIMH PDSP
[5] = biological target: Beta-2 adrenergic receptor (Homo sapiens) (UniProt P07550); test: Inhibition of beta-2 adrenergic receptor at 10 uM by NIMH PDSP
[6] = biological target: Sodium-dependent noradrenaline transporter (Homo sapiens, UniProt P23975); test: Inhibition of NET transporter by NIMH PDSP
[7] = biological target: T2, Muscarinic acetylcholine receptor M1 (Homo sapiens) (UniProt P11229); test: Inhibition of M1 muscarinic receptor at 10 uM by NIMH PDSP
T2 sequence (whole entry): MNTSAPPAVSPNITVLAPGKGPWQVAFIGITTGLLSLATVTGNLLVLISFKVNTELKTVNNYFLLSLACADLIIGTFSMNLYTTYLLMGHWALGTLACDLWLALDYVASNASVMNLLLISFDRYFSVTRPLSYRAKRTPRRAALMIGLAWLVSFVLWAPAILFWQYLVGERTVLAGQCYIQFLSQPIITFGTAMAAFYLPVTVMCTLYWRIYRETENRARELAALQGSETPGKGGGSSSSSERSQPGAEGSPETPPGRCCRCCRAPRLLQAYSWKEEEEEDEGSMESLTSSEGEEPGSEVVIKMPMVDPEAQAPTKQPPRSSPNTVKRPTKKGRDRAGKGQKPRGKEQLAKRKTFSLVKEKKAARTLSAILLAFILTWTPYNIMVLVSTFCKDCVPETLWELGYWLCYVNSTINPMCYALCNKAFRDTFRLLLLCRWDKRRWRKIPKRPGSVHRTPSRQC

[8] = biological target: Histamine H3 receptor (Homo sapiens) (UniProt Q9Y5N1); test: Inhibition of H3 receptor at 10 uM by NIMH PDSP
[9] = biological target: T3, Alpha-1B adrenergic receptor (Homo sapiens) (UniProt P35368); test: Inhibition of alpha-1B adrenergic receptor at 10 uM by NIMH PDSP
T3 sequence (whole entry): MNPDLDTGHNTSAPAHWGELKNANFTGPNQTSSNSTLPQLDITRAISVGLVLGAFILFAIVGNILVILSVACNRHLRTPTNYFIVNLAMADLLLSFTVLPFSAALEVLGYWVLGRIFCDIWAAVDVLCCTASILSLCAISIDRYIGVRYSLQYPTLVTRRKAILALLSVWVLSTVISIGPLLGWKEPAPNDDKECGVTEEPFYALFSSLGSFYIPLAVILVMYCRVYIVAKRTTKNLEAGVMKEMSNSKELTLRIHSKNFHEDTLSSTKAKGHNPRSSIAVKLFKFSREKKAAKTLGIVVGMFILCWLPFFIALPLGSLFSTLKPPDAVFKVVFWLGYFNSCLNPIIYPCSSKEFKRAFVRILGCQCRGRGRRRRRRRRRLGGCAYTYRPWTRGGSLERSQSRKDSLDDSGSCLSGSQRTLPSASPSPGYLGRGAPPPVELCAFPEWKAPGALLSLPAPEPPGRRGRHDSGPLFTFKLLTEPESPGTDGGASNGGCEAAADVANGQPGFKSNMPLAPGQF

[10] = biological target: T4, Alpha-2B adrenergic receptor (Homo sapiens) (UniProt P18089); test: Inhibition of alpha-2B adrenergic receptor at 10 uM by NIMH PDSP
T4 sequence (whole entry): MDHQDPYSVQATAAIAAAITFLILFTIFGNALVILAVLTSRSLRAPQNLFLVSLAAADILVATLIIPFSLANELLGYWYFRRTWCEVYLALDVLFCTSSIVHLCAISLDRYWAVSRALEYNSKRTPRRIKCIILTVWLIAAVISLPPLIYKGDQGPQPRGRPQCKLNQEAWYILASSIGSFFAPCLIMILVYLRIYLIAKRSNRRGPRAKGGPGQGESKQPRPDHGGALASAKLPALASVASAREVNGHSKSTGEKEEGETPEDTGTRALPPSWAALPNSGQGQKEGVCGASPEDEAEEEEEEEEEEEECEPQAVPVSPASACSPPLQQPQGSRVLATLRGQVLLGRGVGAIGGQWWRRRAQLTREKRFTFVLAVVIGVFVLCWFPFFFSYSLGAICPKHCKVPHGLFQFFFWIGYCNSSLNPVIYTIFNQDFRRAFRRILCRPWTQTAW

[11] = biological target: 5-hydroxytryptamine receptor 1B (Homo sapiens) (UniProt P28222); test: Inhibition of 5-HT1B receptor at 10 uM by NIMH PDSP
[12] = biological target: 5-hydroxytryptamine receptor 6 (Homo sapiens) (UniProt P50406); test: Inhibition of 5-HT6 receptor at 10 uM by NIMH PDSP
[13] = biological target: 5-hydroxytryptamine receptor 1E (Homo sapiens) (UniProt P28566); test: Inhibition of 5-HT1E receptor at 10 uM by NIMH PDSP
Sequence of 5-hydroxytryptamine receptor 1E (Homo sapiens) (P28566 whole entry): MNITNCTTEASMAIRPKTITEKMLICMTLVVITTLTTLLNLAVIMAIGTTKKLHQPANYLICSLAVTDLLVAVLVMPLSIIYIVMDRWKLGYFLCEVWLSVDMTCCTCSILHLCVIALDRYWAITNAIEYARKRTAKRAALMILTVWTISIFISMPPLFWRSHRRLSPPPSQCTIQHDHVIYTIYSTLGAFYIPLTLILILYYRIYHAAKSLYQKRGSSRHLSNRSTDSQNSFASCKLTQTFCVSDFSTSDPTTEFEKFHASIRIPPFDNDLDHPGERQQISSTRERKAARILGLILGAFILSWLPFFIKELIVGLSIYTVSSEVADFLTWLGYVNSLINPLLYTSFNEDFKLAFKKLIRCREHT

Sequence of 5-hydroxytryptamine receptor 1B (Homo sapiens) (P28222 whole entry): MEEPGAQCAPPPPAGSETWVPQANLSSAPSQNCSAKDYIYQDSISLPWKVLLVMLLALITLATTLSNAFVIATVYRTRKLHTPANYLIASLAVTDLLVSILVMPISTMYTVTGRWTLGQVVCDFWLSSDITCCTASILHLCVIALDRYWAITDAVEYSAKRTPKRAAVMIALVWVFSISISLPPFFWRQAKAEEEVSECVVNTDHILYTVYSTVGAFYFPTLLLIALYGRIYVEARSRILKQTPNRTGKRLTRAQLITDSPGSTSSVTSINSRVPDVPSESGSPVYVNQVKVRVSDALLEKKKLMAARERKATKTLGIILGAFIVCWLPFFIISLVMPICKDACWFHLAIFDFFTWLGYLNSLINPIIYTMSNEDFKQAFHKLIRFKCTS
Sequence of Beta-2 adrenergic receptor (Homo sapiens) (P07550 whole entry, looked up): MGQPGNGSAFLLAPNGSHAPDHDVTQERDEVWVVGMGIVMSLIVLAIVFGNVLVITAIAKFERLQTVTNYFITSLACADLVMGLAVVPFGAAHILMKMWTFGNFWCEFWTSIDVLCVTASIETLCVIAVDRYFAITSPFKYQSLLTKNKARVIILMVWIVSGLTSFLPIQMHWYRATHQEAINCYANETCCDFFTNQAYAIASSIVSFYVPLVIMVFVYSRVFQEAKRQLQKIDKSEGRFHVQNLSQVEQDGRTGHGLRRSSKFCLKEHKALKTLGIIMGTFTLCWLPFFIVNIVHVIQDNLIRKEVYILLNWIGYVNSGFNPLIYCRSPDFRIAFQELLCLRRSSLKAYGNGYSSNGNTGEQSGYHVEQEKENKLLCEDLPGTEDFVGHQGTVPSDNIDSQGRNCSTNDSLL
Sequence of Sodium-dependent serotonin transporter (Homo sapiens) (P31645 whole entry, looked up): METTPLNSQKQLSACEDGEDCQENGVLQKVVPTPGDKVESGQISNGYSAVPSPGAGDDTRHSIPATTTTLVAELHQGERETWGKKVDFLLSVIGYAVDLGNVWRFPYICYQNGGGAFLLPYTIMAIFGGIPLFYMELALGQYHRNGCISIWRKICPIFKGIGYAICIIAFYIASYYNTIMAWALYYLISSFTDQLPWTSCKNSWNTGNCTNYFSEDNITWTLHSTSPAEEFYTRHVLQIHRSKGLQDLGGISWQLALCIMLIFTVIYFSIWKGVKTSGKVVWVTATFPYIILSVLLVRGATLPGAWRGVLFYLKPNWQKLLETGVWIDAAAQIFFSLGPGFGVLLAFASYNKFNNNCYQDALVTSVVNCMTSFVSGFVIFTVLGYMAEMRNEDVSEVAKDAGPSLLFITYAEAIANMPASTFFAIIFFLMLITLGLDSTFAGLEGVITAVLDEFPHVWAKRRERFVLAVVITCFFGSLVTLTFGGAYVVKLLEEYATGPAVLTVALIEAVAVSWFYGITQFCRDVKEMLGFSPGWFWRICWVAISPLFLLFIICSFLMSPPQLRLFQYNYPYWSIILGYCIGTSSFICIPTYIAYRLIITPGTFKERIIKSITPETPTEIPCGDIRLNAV
Sequence of Sodium-dependent noradrenaline transporter (P23975 whole entry): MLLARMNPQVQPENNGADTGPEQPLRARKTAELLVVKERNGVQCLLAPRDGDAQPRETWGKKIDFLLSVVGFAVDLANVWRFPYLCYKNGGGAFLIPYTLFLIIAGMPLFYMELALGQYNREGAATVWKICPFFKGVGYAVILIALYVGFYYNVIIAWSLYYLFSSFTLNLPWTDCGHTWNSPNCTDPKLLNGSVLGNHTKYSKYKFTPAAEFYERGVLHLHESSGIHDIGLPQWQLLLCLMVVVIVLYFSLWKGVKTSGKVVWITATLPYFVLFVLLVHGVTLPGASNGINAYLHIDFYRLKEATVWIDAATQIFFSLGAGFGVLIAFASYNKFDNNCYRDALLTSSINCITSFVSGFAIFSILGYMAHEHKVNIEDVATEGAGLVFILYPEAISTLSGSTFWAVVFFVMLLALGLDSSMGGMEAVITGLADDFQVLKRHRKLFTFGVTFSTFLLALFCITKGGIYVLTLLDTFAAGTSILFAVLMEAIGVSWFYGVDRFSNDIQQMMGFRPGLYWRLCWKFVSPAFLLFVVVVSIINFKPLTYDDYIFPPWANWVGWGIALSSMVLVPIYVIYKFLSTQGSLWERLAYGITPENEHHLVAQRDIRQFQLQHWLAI
Sequence of 5-hydroxytryptamine receptor 6 (Homo sapiens) (P50406 whole entry): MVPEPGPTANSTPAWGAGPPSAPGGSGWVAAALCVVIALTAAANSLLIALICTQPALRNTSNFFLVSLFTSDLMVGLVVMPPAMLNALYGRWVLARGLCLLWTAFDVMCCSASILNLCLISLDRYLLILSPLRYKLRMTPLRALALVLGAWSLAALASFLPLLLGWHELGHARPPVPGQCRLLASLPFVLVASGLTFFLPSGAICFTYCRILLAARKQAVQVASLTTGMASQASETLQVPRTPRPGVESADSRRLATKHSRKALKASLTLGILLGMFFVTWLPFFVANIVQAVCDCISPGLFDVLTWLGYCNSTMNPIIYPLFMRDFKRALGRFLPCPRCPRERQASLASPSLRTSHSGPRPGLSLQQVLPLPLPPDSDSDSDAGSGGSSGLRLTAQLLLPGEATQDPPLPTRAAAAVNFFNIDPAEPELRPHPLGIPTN
Sequence of Mu-type opioid receptor (Homo sapiens) (P35372 whole entry): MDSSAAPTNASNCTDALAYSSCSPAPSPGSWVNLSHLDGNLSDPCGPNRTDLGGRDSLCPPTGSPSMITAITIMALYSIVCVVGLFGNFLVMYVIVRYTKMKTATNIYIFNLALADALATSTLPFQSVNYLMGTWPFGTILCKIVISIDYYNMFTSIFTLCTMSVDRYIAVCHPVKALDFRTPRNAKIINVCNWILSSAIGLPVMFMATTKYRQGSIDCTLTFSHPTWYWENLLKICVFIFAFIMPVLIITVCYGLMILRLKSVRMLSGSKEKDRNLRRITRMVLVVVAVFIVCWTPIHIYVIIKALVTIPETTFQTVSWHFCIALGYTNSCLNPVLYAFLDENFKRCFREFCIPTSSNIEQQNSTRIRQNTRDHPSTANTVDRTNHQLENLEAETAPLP
Sequence of Histamine H3 receptor (Homo sapiens) (Q9Y5N1 whole entry): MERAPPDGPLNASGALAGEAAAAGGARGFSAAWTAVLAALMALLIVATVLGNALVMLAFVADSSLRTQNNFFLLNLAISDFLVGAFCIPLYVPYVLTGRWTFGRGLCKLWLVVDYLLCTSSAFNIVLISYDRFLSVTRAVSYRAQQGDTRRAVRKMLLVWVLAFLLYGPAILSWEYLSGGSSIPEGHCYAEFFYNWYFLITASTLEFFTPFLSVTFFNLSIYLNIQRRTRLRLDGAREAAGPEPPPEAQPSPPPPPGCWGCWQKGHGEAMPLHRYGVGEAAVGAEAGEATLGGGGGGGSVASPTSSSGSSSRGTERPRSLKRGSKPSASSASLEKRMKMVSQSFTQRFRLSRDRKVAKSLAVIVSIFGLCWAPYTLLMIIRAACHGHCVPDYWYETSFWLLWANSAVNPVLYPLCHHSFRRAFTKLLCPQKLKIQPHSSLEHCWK
Sequence of Muscarinic acetylcholine receptor M3 (Homo sapiens) (P20309 whole entry, looked up): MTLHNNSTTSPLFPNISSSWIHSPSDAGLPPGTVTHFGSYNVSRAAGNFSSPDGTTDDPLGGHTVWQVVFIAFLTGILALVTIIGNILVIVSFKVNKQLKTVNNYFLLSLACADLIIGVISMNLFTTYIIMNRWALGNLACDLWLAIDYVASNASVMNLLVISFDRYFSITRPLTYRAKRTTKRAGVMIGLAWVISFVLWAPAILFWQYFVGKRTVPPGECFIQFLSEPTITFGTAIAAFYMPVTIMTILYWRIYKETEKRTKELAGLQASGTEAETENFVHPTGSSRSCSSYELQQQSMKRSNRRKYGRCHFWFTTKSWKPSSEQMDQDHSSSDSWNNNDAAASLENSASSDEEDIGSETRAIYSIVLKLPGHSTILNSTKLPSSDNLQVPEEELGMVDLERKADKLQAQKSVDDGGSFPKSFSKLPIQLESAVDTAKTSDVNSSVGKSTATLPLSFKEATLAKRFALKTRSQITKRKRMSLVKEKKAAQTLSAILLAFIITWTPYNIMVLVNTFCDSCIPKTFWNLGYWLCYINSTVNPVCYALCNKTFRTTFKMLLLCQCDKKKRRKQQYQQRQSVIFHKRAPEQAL

| Structure (SMILES) | inhibition [1] | inhibition [2] | inhibition [3] | inhibition [4] | inhibition [5] | Ki [6] | inhibition [7] | inhibition [8] | inhibition [9] | inhibition [10] | inhibition [11] | inhibition [12] | inhibition [13] |
| --- | --- | --- | --- | --- | --- | --- | --- | --- | --- | --- | --- | --- | --- |
| OC12CC3CC(CC(C3)N1Cc1cccc(F)c1)C2 (racemic) | < 50% | < 50% | < 50% | < 50% | < 50% | > 10 µM | < 50% | < 50% | < 50% | < 50% | < 50% | < 50% | < 50% |
| OC12CC3CC(CC(C3)N1Cc1ccccc1)C2 (racemic) | < 50% | < 50% | < 50% | < 50% | < 50% | – | < 50% | < 50% | < 50% | – | < 50% | < 50% | < 50% |
| Fc1cccc(CN2C3CC4CC(C3)CC2C4)c1 | < 50% | < 50% | < 50% | < 50% | < 50% | > 10 µM | < 50% | < 50% | < 50% | < 50% | < 50% | < 50% | < 50% |
| c1ccc(CN2C3CC4CC(C3)CC2C4)cc1 | < 50% | < 50% | < 50% | < 50% | < 50% | > 10 µM | < 50% | < 50% | < 50% | < 50% | < 50% | < 50% | < 50% |
